The values below come from ChEMBL document CHEMBL1149005, “Studies on zoapatle, II. Leucanthanolide, a novel sesquiterpene lactone from Montanoa leucantha ssp. leucantha” (1986).

Molecules are shown by their SMILES. In brackets after ≈: the same amount, converted by molar mass. Activity calls are given as the source filed them. No cut-off for these calls is given here.

For one experiment, the system named is P388. The experiment can be described thus: Cytotoxicity against mouse P388 cells. The experiment is classed as functional. The conditions noted are these: read-out: ED50 (the source's name).
Another experiment relates to KB. Description: Cytotoxicity against human KB cells. The experiment is classed as functional. The note with it: read-out: ED50 (the source's name).
In a further experiment the test system is Cavia porcellus. Description: Uteroevacuant activity in pregnant guinea pig at 20 mg/kg, ip administered on day 22 of gestation measured daily for 7 days. The experiment is classed as functional, organism-based. Also on record: dose 20 mg/kg.

Regarding `C=C1C(=O)O[C@@H]2/C=C(\C)CC/C=C(\C)[C@@H](OC(=O)C(C)C)[C@H](O)[C@@]12O` [LEUCANTHANOLIDE], the EC50 is 0.93 µg/mL (≈ 2.65 µM) in the experiment with P388 and 0.57 µg/mL (≈ 1.63 µM) in the experiment with KB. Also, the outcome in the experiment on Cavia porcellus was inactive.
